Results from patent US20100093643A1 (priority 2006, published 2010).
Values joined by “and” are separate entries in the source; they are usually repeats but may differ in a detail not shown here. Equal entries are not always repeated. Where two headings read alike, the source gives them in different places.

Key:
[1] = test system: BALB mice under normobaric hypoxic hypoxia; assay: Antihypoxic action, lifetime of mice under normobaric hypoxic hypoxia; format: in vivo, mouse
Procedure: Antihypoxic action of the new enkephalin analogue (1) was determined by the measurement of lifetime duration in mice under the normobaric hypoxic hypoxia conditions.
The experiments were conducted on BALB-bread mice weighing 20 to 22 g. The normobaric hypoxic hypoxia conditions were modelled by placing the animals in hermetic camera, containing Ca(OH)2 to absorb the excess of carbon dioxide. The substances studied were injected intraperitoneally 1 min. before the placing of animals in the hermetic camera. The peptides were used at doses 1.0 mg/kg. […] Sodium oxybutyrate at highest therapeutic dose was used as comparative compound. The lifetime was estimated as the time when the animals stopped making breathing movements.

[2] = test system: peripheral opiate receptors, mouse vas deferens (MVD); assay: MVD bioassay, suppression of electrically induced contraction
Procedure: Brit. J. Pharmacol., 35, 10-28]. The longitudinal muscle of ileum from guinea pig of any sex (weight 350-500 g) was carefully separated from underlying circular muscle and placed into a small bath with Krebs solution at 36° C.
The solution was constantly aerated. A constant load of 0.2 g was applied to the tissue. The tissue was stimulated by means of the ring platinum electrodes by single impulses of […] duration with 0.1 Hz frequency. […] Vas deferens of mice (weight 27 to 30 g) were placed into a bath with modified Krebs solution (not containing magnesium sulphate) at 31° C. The substances under study were dissolved in distilled water. The inhibiting activity of the compounds was determined by accumulating doses, adding increasing concentrations of the compounds without washing. The activity of the preparations was expressed as IC50 in nmol/l. The results obtained in 8-10 tests were statistically processed using Student's criterion.

outbreed male mice = assay: Analgesic activity in vivo, tail pinch method; parameters: species or system mouse
Procedure: Analgesic activity of enkephalin analogues was determined by a “tail pinch” method [Ueda H.; Amano H.; Shiomi H.; Takagi H. (1979). Eur. J. Pharmacol., 56, 265-268]. […] Ten mice were used in each experiment.
The studied substances were dissolved in sterile physiological solution and injected in J-shaped needles into the brain of conscious mice at a dose of 10 μl. Control animals received 10 μl of sterile physiological solution. Intravenous administration was into the tail vein. Analgesic activity was tested by pinching the mouse tail with an artery clip with 200 g pressure. The mice who bit the clip within one second after application of pinching were selected for assays. Analgesic activity was defined as latency on the biting response greater than 6 sec. The analgesic tests were performed 5, 15, 30, 60 and 90 min after administration and then every 30 min until the analgesic reaction was stopped. The analgesic activity of the peptides was expressed as a percentage of mice not showing the biting response.

[3] = test system: peripheral opiate receptors, guinea pig ileum (GPI, predominantly μ-type of opioid receptor); details: ratio of relative potencies GPI to MVD
[4] = target: T1, peripheral opiate receptors, guinea pig ileum (GPI, predominantly μ-type of opioid receptor) (Cavia porcellus, UniProt A0ACM8Q262); details: GPI assay
T1 construct: other: guinea pig ileum longitudinal muscle, electrical stimulation; GPI Relative potency, %; other: GPI assay
T1 sequence (A0ACM8Q262 1-400): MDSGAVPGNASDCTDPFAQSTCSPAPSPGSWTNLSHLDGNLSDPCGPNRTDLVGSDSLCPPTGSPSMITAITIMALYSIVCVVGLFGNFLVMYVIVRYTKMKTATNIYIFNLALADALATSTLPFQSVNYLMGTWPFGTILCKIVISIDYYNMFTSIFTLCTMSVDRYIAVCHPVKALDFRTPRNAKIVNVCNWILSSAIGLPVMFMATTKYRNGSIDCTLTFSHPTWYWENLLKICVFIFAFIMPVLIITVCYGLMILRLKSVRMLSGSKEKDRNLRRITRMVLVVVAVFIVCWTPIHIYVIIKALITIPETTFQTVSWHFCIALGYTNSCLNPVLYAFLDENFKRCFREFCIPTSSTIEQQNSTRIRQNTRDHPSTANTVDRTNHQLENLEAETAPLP

CD-1 male mice = assay: Analgesic activity in vivo, hot plate method; parameters: species or system mouse
Procedure: Male Swiss albino mice (CD1), weighing 20-22 g were used throughout the study. The animals were housed in solid bottom polycarbonate cages with access to standard laboratory diet (Laboratory Rodent Diet PK-120) and tap water ad libitum, under controlled environmental conditions (temperature:18-26° C., 8 a.m. to 8 p.m. light-dark cycle). Mice were tested only once.
The Hot-plate-meter represents the thermostatic controllable, electro-heated up surface limited by transparent walls (L: 25 cm, W: 25 cm, H: 35 cm). The forward panel of the device is equipped by buttons for the control of time and a temperature mode (Columbus Instruments).
The i.v. administration was performed via tail vein as a bolus injection. The doses for all animals were calculated on the basis of the last value of the individual body weight.
The animals accurately were placed on the preheated hot plate (55±0.5° C.) after i.v. injection of saline or peptides and the latencies to first paw licking and first jumping were measured. The other behavioral reactions were ignored. The animals were removed from a hot surface after the first jumping. A cut-off time of 180 s was used to avoid tissue damage.
To evaluate the hot-plate test responses, the control latencies (t0) and test latencies (t1) were determined after injection of saline or peptides, respectively. The percentage of the maximal possible effect (% MPE) was calculated as % MPE=(t1−t0)/(t2−t0)×100, where the cut-off time (t2) was 180 s.
The latency for the first jumping is considered as the most indicative in the hot-plate test. The area under the time-response curve was calculated by methods described elsewhere (Cicero and Meyer, 1973), to assess the magnitude of antinociception (FIG. 5, see appendix).
The median analgesic dose (ED50) also has been calculated for this parameter.

[5] = test system: rats with ligature of coronary arteries; format: in vivo, rat; parameters: myocardial necrosis size: unit not given here; details: for CPK / HF-CPK / Lactate: blood; for Lethality %: rats with sharp myocardial ischemia
[6] = 6 hours after ligature, compound (1) 0.05 mg/kg
[7] = 24 hours after ligature, compound (1) 0.05 mg/kg, nitroglycerine highest therapeutic dose

## CC(=O)NCCCC(NC(=O)C(N)Cc1ccc(O)cc1)C(=O)NCC(=O)NC(Cc1ccc([N+](=O)[O-])cc1)C(N)=O [Peptide 1, Tyr-(N^δ—Ac)-D-Orn-Gly-Phe(p-NO2)—NH2]
[1]; 1.0 mg/kg i.p.
  lifetime longer than in the control experiments: 57%
[1]; 1.0 mg/kg i.p. 1 min before hermetic chamber
  Duration of life: 16.9 ± 1.1 min
[2]; [Leu^5]-enkephalin = 100
  MVD Relative potency, %: 52%
[2]; mouse vas deferens, electrical stimulation
  IC50: 38.5 ± 20.1 nM
Outbreed male mice; intracisternal administration
  Duration of analgesic effect at ED60-80: 120 min
  ED50 nmol/animal (dose interval): 0.02 (0.01-0.04) nmol/animal
  Relative analgesic activity morphine = 1: 60
Outbreed male mice; intravenous administration
  Duration of analgesic effect at ED60-80: 60 min
  ED50 μmol/kg (dose interval): 8.0 (0-25) μmol/kg
  Relative analgesic activity morphine = 1: 2 and 2.2
[3]
  GPIrel/MVDrel: 46
[4]
  activity compared with morphine: more active than morphine by one order
CD-1 male mice; intravenous administration, time point of 15 min
  ED50 (jump latency): 1.27 mg/kg
CD-1 male mice; intravenous, from ED50 at 15 min
  analgesic activity exceeding that of morphine: 2 times
[5]; 0.05 mg/kg i.p. 30 min after coronary occlusion, observation time 6 hours
  myocardial necrosis size: 40.70 ± 1.52
[5]; 0.05 mg/kg i.p. 30 min after coronary occlusion, observation time 12 hours
  myocardial necrosis size: 47.51 ± 1.63
[5]; 0.5 mg/kg i.p. 30 min after coronary occlusion, observation time 6 hours
  myocardial necrosis size: 40.05 ± 1.93
[5]; 0.5 mg/kg i.p. 30 min after coronary occlusion, observation time 12 hours
  myocardial necrosis size: 46.64 ± 2.20
[5]; [6]
  Glycogen of heart: 1.00 ± 0.12 g/kg
  Glycogen of liver: 6.98 ± 1.02 g/kg
  CPK: 93.5 ± 5.3 units/l
  HF-CPK: 15.3 ± 0.7 units/l
  Lactate: 1.61 ± 0.45 mmol/L
[5]; 24 hours after ligature, compound (1) 0.05 mg/kg
  Glycogen of heart: 1.11 ± 0.17 g/kg
[5]; [7]
  CPK: 86.6 ± 4.9 units/l
  HF-CPK: 12.3 ± 0.7 units/l
  Lactate: 1.70 ± 0.09 mmol/L
[5]; 0.05 mg/kg
  Lethality %: 33%
[5]; 0.5 mg/kg
  Lethality %: 27%
